From publication PMC7730438, “Generation of KS-58 as the first K-Ras(G12D)-inhibitory peptide presenting anti-cancer activity in vivo” (Scientific Reports, 2020)
Values joined by “and” are separate entries in the source; they are usually repeats but may differ in a detail not shown here. Equal entries are not always repeated. Each block holds one molecule with its values, some of them ahead of it. Starred links: 1 amine or outer side, 2 acyl side, 3 side chain; linkers in the order of their positions; H or OH if unused. Positions of bridges follow the written chain, without caps; N, C: chain ends. Non-standard residues stand in square brackets, D forms with d. Residues, ends and D or L forms follow the SMILES beside them. Groups on a side chain read outwards from the residue. *: point of attachment. Biotin = O=C1N[C@H]2[C@H](CS[C@H]2CCCCC(=O)*)N1; Phe(4-F) = N[C@@H](Cc1ccc(F)cc1)C(=O)O; X1 = CCCCCCC[C@H](N[*:1])C(=O)[*:2]; Nle = CCCC[C@H](N)C(=O)O; X2 = C(C[*:1])C[*:2]; Ahx = NCCCCCC(=O)O; βAla = NCCC(=O)O

Assays:
[1] = biological target: T1, recombinant K-Ras(G12D) protein (Homo sapiens, UniProt P01116, G12D); experiment: Cell-free ELISA binding of biotin-labeled peptides; settings: Fig. 4A
T1 construct: purchased Abcam ab268712
Method: (§2) Ras protein was directly coated to wells of Nunc MaxiSorp microplate in PBS containing 0.01 mM GDP and 10 mM MgCl2 overnight at 4 °C. The wells were blocked in PBS containing 0.1% bovine serum albumin (BSA) for 0.5 h at 25 °C.
For binding assays of biotin-labeled peptides, Ras protein (25 μg/mL) was coated to wells of Nunc MaxiSorp 96-well clear plate (439,454) as described above. After washing the wells three times using PBS containing 0.1% Tween20 (PBST), biotin-labeled peptides in PBS containing 0.025% BSA, 0.01 mM GDP, and 10 mM MgCl2 were added to the wells. After 0.5 h incubation at 25 °C, the wells were washed with PBST three times. Bound biotin-labeled peptides were detected using horseradish peroxidase (HRP)-conjugated streptavidin (SA) (ab7403, Abcam) and 1-Step Ultra TMB-ELISA Substrate Solution (34028, Thermo Fisher Scientific). The amounts of HRP in the wells were measured by absorbance to 450 nm.

[2] = test system: PANC-1 xenografts (pancreas weight); experiment: Combination administration test of KS-58 and gemcitabine; assay type: in vivo, mice; settings: gemcitabine alone, 40 mg/kg intraperitoneally once every 4 days for 4 weeks
Method: To establish orthotropic xenograft tumor models, 2.5 × 10^6 cells/50 µL of PANC-1 cells were injected into the pancreas of BALB/cAJcl-nu/nu male mice (8 weeks old; CLEA Japan, Inc.). KS-58 was dissolved in DMSO and then tenfold diluted by saline. The peptide solution was then injected intravenously to the mice bearing tumors once every 2 days for 4 weeks (40 mg/kg, n = 7). Organ weights of the pancreas, liver, and kidney were measured. In combination administration test, gemcitabine hydrochloride solution (Nipponkayaku) was tenfold diluted by saline and then injected intraperitoneally to the mice bearing tumors once every 4 days for 4 weeks (40 mg/kg, n = 10), and peptide solution prepared as a same manner described above was injected intravenously to the mice bearing tumors once every 2 days for 4 weeks (10, 20, or 40 mg/kg, n = 10). Organ weights of the pancreas were measured.

[3] = biological target: Recombinant human K-Ras(G12D) (human) (UniProt P01116)
[4] = biological target: SmBiT-fused K-Ras(G12D) (human) (UniProt P01116); experiment: split reporter (BiFC, NanoBiT); NanoBiT in transfected HEK293T cells; peptides (30 µM) added to the cells for 2 h; remaining K-Ras(G12D)-SOS1 or K-Ras(G12D)-BRAF luminescence in % of no peptide
A427 cells = experiment: Cell proliferation assay (CellTiter-Glo, 72 h); assay type: cell-based, human; settings: A427 (G12D), peptide 30 µM, n = 4, ± SEM
Method: A427 (ATCC HTB-53), A549 (ATCC CCL-185), H1975 (ATCC CRL-5908), PANC-1 (ATCC CRL-1469), MIA PaCa-2 (ATCC CRL-1420), and Capan-1 (ATCC HTB-79) cells were purchased from ATCC, and each cell was cultured in medium supplemented with 10% fetal bovine serum (FBS), according to the protocol recommended by the manufacture.
The effect of peptides on cell proliferation of A427, A549, H1975, PANC-1, MIA PaCa-2, and Capan-1 cells was determined by 72 h exposure to peptides. Cells were seeded at 1000 cells/well in 96-well tissue culture plates in each growth media and allowed to adhere overnight on day 0. Peptides were solved in DMSO and then diluted with each growth media for a constant final DMSO concentration of 0.5%. Media in the wells were removed and replaced with diluted peptide solutions, and cells were incubated for 3 days. During the incubation, medium containing the peptides was replaced every day. Relative cell numbers were estimated using CellTiter-Glo assay kit (G7570, Promega, WI, USA) according to the manufacturer’s instructions. Luminescence was detected using SpectraMax i3x (MOLECULAR DEVICES, CA, USA). Cell proliferation rate (%) was calculated based on cell numbers at day 0 as 0% and at day 3 without peptide treatment as 100%.

[5] = biological target: T2, K-Ras(G12D)^GDP–SOS1 interaction (Homo sapiens, UniProt P01116, G12D); experiment: Intracellular PPI inhibition assay using NanoBiT in HEK293T cells; assay type: cell-based; settings: peptide 30 µM, n = 4
T2 construct: host or cells: HEK293T
Method: (§1) Intracellular protein–protein interaction (PPI) inhibition assays were carried out using the NanoBiT system (Promega). Three kinds of plasmids with CMV promoters, which encodes human K-Ras(G12D) fusing SmBiT to the N-terminus, encodes human SOS1 fusing LgBiT to the C-terminus, and encodes human BRAF fusing LgBiT to the C-terminus, were prepared by Promega. Each combination of plasmids was transfected to HEK293T cells by FuGENE HD Reagent (E2312, […]). After 30 h incubation at 37 °C under 5% CO2, the cells were recovered, and seeded to 96-well tissue culture white plate with 10% FBS containing DMEM, and incubated overnight. Peptides were added to the plate and incubated for another 2 h. Nano-Glo (Promega, N2011) was directly added to the plate, and luminescence was immediately monitored. Intracellular K-Ras(G12D)^GDP–SOS1 and K-Ras(G12D)^GTP–BRAF interactions (%) were calculated based on no peptide treatment as 100% and only transfection of plasmid encoding LgBiT fusion protein as 0%.

[6] = biological target: T3, K-Ras(G12D)^GTP–BRAF interaction (Homo sapiens, UniProt P01116, G12D); experiment: as above; assay type: cell-based; settings: peptide 30 µM, n = 4
T3 construct: host or cells: HEK293T
Method: as §1

[7] = biological target: T1, recombinant K-Ras(G12D) protein; experiment: Competition binding assay (ELISA) against Biotin-KRpep-2d; settings: competitive inhibition of Biotin-KRpep-2d (100 nM) binding; n = 4, ± SEM
Method: as §2
For competition binding assays, Ras protein (250 ng/mL) was coated to wells of Nunc MaxiSorp 96-well clear plate (439454) as described above. […] The amounts of HRP in the wells were measured by absorbance at 450 nm.

Molecule: CCCCCCC[C@@H]1NC(=O)[C@@H]2CSCCCSC[C@@H](NC(=O)[C@H](Cc3c[nH]c4ccccc34)NC(=O)[C@H](CCCCNC(=O)CCCCCNC(=O)CCCC[C@@H]3SC[C@@H]4NC(=O)N[C@@H]43)NC(=O)[C@H](CC(=O)O)NC(=O)[C@H](Cc3ccc(F)cc3)NC(=O)[C@H](CO)NC1=O)C(=O)NCCC(=O)N1CCC[C@H]1C(=O)N[C@@H](CCCC)C(=O)N2 [Biotin-KS-58, c[βAla-Pro-Nle-c(Cys-Anon-Ser-4fF-Asp-Lys(εN-biotin)-Trp-^DCys)]] (cyclo([βAla]P[Nle]C[X1]S[Phe(4-F)]DK([Ahx-Biotin])W[dC]); linker 4-11 via X2)
Binding activity to K-Ras(G12D) protein in ELISA (in words) [1]: peptide concentration-dependent binding

Molecule: Nc1ccn([C@@H]2O[C@H](CO)[C@@H](O)C2(F)F)c(=O)n1 [Gemcitabine, gemcitabine]
cell growth of PANC-1 (pancreas weight; Sham = 0%, vehicle = 100%) [2]: 66%

Molecule: c[Arg-Arg-Arg-Arg-c(Dap-Pro-Nle-Trp-Anon-Dap-Cha-Asp-Pro-Trp-Asp)-Arg-Arg-Arg-Arg] [KS-36]
K-Ras(G12D)-binding activity, fold-value compared to the parental KRpep-2d set as 1.0 [7]: about 30 Fold | Cell proliferation (%) (A427 cells): 33.1% and 33.1 ± 9.6%

Now from value to molecule, other results behind:

cell proliferation (%) of A427 cells (K-Ras G12D) at 30 µM peptide, 72 h, CellTiter-Glo [3]: 21.1% | cell proliferation (%) of PANC-1 cells (K-Ras G12D) at 30 µM peptide, 72 h, CellTiter-Glo [3]: 50.1% | pERK (%) in A427 cells (K-Ras G12D) at 30 µM peptide [3]: 26% | pERK (%) in PANC-1 cells (K-Ras G12D) at 30 µM peptide [3]: 57.6% | percent of K-Ras(G12D)-BRAF NanoBiT luminescence left at 30 µM peptide [4]: 53.8% | percent of K-Ras(G12D)-SOS1 NanoBiT luminescence left at 30 µM peptide [4]: 35.5%
Molecule: KS-58 (peptide)

Intracellular K-Ras(G12D)^GDP–SOS1 interaction (luminescence, %) [5]: weaker inhibition activity than KS-58 | Intracellular K-Ras(G12D)^GTP–BRAF interaction (luminescence, %) [6]: weaker inhibition activity than KS-58
Molecule: c(βAla-Pro-Nle-Cys-Anon-Ser-4fF-Asp-Pro-Trp-^DCys) [KS-58(monocyclic)]
Cell proliferation (%) (A427 cells): 87.1 ± 1.4%
